Assay results from PubChem BioAssay (NCI).
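Growth conditions: 96-well plates. Treatment: test compound, 48 hours, 5 concentrations. Analysis: linear interpolation between bracketing concentrations; unreached endpoints set to highest concentration. TGI marks complete inhibition of growth.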

What was measured:
Assay in all cases: NCI-60 cell line screen, 48 h
[1] = tested on: K-562 leukemia
[2] = tested on: SK-MEL-28 melanoma
[3] = tested on: KM12 colon
[4] = tested on: OVCAR-4 ovarian
[5] = tested on: OVCAR-5 ovarian
[6] = tested on: RXF-631 renal
[7] = tested on: NCI-H23 lung
[8] = tested on: CAKI-1 renal
[9] = tested on: UACC-257 melanoma
[10] = tested on: MOLT-4 leukemia
[11] = tested on: DMS 114 small cell lung
[12] = tested on: SK-MEL-2 melanoma
[13] = tested on: U251 CNS
[14] = tested on: KM20L2 colon
[15] = tested on: COLO 205 colon
[16] = tested on: NCI-H226 lung
[17] = tested on: LOX IMVI melanoma
[18] = tested on: EKVX NSCLC
[19] = tested on: HCT-15 colon
[20] = tested on: M14 melanoma
[21] = tested on: SF-539 CNS
[22] = tested on: SNB-78 CNS
[23] = tested on: A549 NSCLC
[24] = tested on: A498 renal
[25] = tested on: ACHN renal
[26] = tested on: SF-268 CNS
[27] = tested on: SK-OV-3 ovarian
[28] = tested on: CCRF-CEM leukemia
[29] = tested on: HT29 colon
[30] = tested on: NCI-H522 lung
[31] = tested on: M19-MEL melanoma
[32] = tested on: RPMI-8226 leukemia
[33] = tested on: 786-0 renal
[34] = tested on: RXF 393 renal
[35] = tested on: HOP-62 NSCLC
[36] = tested on: MALME-3M melanoma
[37] = tested on: NCI-H460 lung
[38] = tested on: HCT-116 colon
[39] = tested on: DLD-1 colon
[40] = tested on: UO-31 renal
[41] = tested on: TK-10 renal
[42] = tested on: SK-MEL-5 melanoma
[43] = tested on: OVCAR-3 ovarian
[44] = tested on: SNB-75 CNS
[45] = tested on: IGROV1 ovarian
[46] = tested on: SW-620 colon
[47] = tested on: HCC-2998 colon
[48] = tested on: SNB-19 CNS
[49] = tested on: SF-295 CNS
[50] = tested on: UACC-62 melanoma
[51] = tested on: XF 498 CNS
[52] = tested on: OVCAR-8 ovarian
[53] = tested on: LXFL 529 NSCLC
[54] = tested on: DMS 273 small cell lung
[55] = tested on: SN12C renal
[56] = tested on: HOP-92 NSCLC
[57] = tested on: SR leukemia
[58] = tested on: HL-60(TB) leukemia

Q: What does the source list for `CCCNCCCCC(NC(C)=O)C(=O)NCc1ccccc1` (stereo not given)?
A: TGI [1]: > 100 µM; TGI [2]: > 100 µM; TGI [3]: > 100 µM; TGI [4]: > 100 µM; TGI [5]: > 100 µM; TGI [6]: > 100 µM; TGI [7]: > 100 µM; TGI [8]: > 100 µM; TGI [9]: > 100 µM; TGI [10]: > 100 µM; TGI [11]: > 100 µM; TGI [12]: > 100 µM; TGI [13]: > 100 µM; TGI [14]: > 100 µM; TGI [15]: > 100 µM; TGI [16]: > 100 µM; TGI [17]: > 100 µM; TGI [18]: > 100 µM; TGI [19]: > 100 µM; TGI [20]: > 100 µM; TGI [21]: > 100 µM; TGI [22]: > 100 µM; TGI [23]: > 100 µM; TGI [24]: > 100 µM; TGI [25]: > 100 µM; TGI [26]: > 100 µM; TGI [27]: > 100 µM; TGI [28]: > 100 µM; TGI [29]: > 100 µM; TGI [30]: > 100 µM; TGI [31]: > 100 µM; TGI [32]: > 100 µM; TGI [33]: > 100 µM; TGI [34]: > 100 µM; TGI [35]: > 100 µM; TGI [36]: > 100 µM; TGI [37]: > 100 µM; TGI [38]: > 100 µM; TGI [39]: > 100 µM; TGI [40]: > 100 µM; TGI [41]: > 100 µM; TGI [42]: > 100 µM; TGI [43]: > 100 µM; TGI [44]: > 100 µM; TGI [45]: > 100 µM; TGI [46]: > 100 µM; TGI [47]: > 100 µM; TGI [48]: > 100 µM; TGI [49]: > 100 µM; TGI [50]: > 100 µM; TGI [51]: > 100 µM; TGI [52]: > 100 µM; TGI [53]: > 100 µM; TGI [54]: > 100 µM; TGI [55]: > 100 µM; TGI [56]: > 100 µM

Q: What does the source list for `Cc1cc(C)nc(NS(=O)(=O)c2ccc(Nc3c4ccccc4nc4c(C(=O)NCCN(C)C)cccc34)cc2)n1`?
A: TGI [1]: 17.8 µM; TGI [2]: 20.4 µM; TGI [3]: 18.4 µM; TGI [4]: 11.9 µM; TGI [5]: 29.4 µM; TGI [6]: 18 µM; TGI [7]: 21.5 µM; TGI [10]: 1.61 µM; TGI [11]: 17.5 µM; TGI [12]: 19.1 µM; TGI [13]: 18.1 µM; TGI [14]: 20.2 µM; TGI [16]: 6.21 µM; TGI [17]: 11.7 µM; TGI [18]: 23.6 µM; TGI [19]: 19.3 µM; TGI [20]: 20.4 µM; TGI [21]: 14.9 µM; TGI [22]: 45.2 µM; TGI [23]: 16.1 µM; TGI [25]: 15.9 µM; TGI [26]: 20.1 µM; TGI [28]: 22.6 µM; TGI [29]: 14.3 µM; TGI [30]: 4.28 µM; TGI [31]: 14.9 µM; TGI [33]: 25.2 µM; TGI [34]: 20.2 µM; TGI [35]: 14.5 µM; TGI [37]: 10.9 µM; TGI [38]: 15.5 µM; TGI [39]: 21.7 µM; TGI [40]: 5.89 µM; TGI [41]: 27.7 µM; TGI [42]: 18.8 µM; TGI [44]: 24.4 µM; TGI [45]: 16.4 µM; TGI [57]: 43.7 µM; TGI [46]: 15.2 µM; TGI [48]: 10.7 µM; TGI [49]: 14.9 µM; TGI [50]: 14.6 µM; TGI [51]: 26.8 µM; TGI [52]: 20.5 µM; TGI [53]: 20 µM; TGI [54]: 11.2 µM; TGI [58]: 4.82 µM; TGI [55]: 17.3 µM

Q: How did the TGI [1] turn out when `CCN(c1ccccc1)[C@H]1C(=O)N(c2ccc([N+](=O)[O-])cc2)[C@H]1c1ccc(OC)cc1` was run?
A: > 100 µM

Q: And the TGI [2]?
A: > 100 µM

Q: And the TGI [3]?
A: > 100 µM

Q: What about the TGI [5] of the same molecule?
A: > 100 µM

Q: What about the TGI [6] of the same molecule?
A: > 100 µM

Q: And the TGI [7]?
A: > 100 µM

Q: And the TGI [8]?
A: > 100 µM

Q: And the TGI [9]?
A: > 100 µM

Q: And the TGI [10]?
A: > 100 µM

Q: And the TGI [11]?
A: > 100 µM

Q: What about the TGI [12] of the same molecule?
A: > 100 µM

Q: And the TGI [13]?
A: > 100 µM

Q: And the TGI [15]?
A: > 100 µM

Q: And the TGI [16]?
A: > 100 µM

Q: What about the TGI [18] of the same molecule?
A: > 100 µM

Q: And the TGI [21]?
A: > 100 µM

Q: And the TGI [22]?
A: > 100 µM

Q: What about the TGI [23] of the same molecule?
A: > 100 µM

Q: And the TGI [24]?
A: > 100 µM

Q: And the TGI [25]?
A: > 100 µM

Q: And the TGI [26]?
A: > 100 µM

Q: What about the TGI [27] of the same molecule?
A: > 100 µM

Q: What about the TGI [28] of the same molecule?
A: > 100 µM

Q: And the TGI [29]?
A: > 100 µM

Q: And the TGI [30]?
A: > 100 µM

Q: What about the TGI [31] of the same molecule?
A: > 100 µM

Q: What about the TGI [32] of the same molecule?
A: > 100 µM

Q: And the TGI [33]?
A: > 100 µM

Q: What about the TGI [34] of the same molecule?
A: > 100 µM

Q: And the TGI [36]?
A: > 100 µM

Q: What about the TGI [37] of the same molecule?
A: > 100 µM

Q: And the TGI [38]?
A: > 100 µM

Q: And the TGI [39]?
A: > 100 µM

Q: And the TGI [40]?
A: > 100 µM

Q: And the TGI [41]?
A: > 100 µM

Q: What about the TGI [42] of the same molecule?
A: > 100 µM

Q: And the TGI [43]?
A: > 100 µM

Q: What about the TGI [44] of the same molecule?
A: > 100 µM

Q: What about the TGI [45] of the same molecule?
A: > 100 µM

Q: And the TGI [57]?
A: > 100 µM

Q: And the TGI [46]?
A: > 100 µM

Q: What about the TGI [47] of the same molecule?
A: > 100 µM

Q: And the TGI [48]?
A: > 100 µM

Q: And the TGI [49]?
A: > 100 µM

Q: And the TGI [50]?
A: > 100 µM

Q: What about the TGI [52] of the same molecule?
A: > 100 µM

Q: And the TGI [53]?
A: > 100 µM

Q: And the TGI [54]?
A: > 100 µM

Q: What about the TGI [58] of the same molecule?
A: > 100 µM

Q: And the TGI [55]?
A: > 100 µM

Q: What about the TGI [56] of the same molecule?
A: 81.8 µM
